The source of these data is patent US20240368078A1, “ARYL HETEROCYCLIC COMPOUNDS AS Kv1.3 POTASSIUM SHAKER CHANNEL BLOCKERS” (D.E. SHAW RESEARCH, LLC, priority 2021, published 2024).

Kv1.3 potassium channel, sequence (P22001 whole entry): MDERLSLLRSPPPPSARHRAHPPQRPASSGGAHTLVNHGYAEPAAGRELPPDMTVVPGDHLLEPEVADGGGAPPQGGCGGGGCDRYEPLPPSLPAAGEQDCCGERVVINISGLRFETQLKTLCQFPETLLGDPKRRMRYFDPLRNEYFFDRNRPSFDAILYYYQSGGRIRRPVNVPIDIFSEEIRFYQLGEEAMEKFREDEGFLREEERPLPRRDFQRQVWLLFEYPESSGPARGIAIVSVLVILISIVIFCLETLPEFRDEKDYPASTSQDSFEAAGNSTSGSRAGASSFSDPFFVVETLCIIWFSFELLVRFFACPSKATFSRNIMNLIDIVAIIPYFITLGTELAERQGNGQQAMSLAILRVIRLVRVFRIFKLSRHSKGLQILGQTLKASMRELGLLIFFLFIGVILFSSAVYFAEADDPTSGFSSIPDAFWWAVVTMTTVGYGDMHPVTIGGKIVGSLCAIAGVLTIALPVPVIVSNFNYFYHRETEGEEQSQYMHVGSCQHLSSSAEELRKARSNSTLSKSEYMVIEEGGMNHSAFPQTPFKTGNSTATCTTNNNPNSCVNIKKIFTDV

The assay has as its target Kv1.3 potassium channel (Homo sapiens (Human), UniProt P22001). Put plainly: Kv1.3 potassium channel blocker activity, automated whole-cell patch clamp in CHO-K1 cells stably expressing Kv1.3. Format: cell-based. Conditions: Patchliner patch clamp. Here is the method: Example 21. Evaluation of Kv1.3 Potassium Channel Blocker Activities
This assay is used to evaluate the disclosed compounds' activities as Kv1.3 potassium channel blockers.
CHO-K1 cells stably expressing Kv1.3 were grown in DMEM containing 10% heat-inactivated FBS, 1 mM sodium pyruvate, 2 mM L-glutamine, and G418 (500 μg/ml). Cells were grown in culture flasks at 37° C. in a 5% C02-humidified incubator.
The cells were bathed in an extracellular solution containing 140 mM NaCl, 4 mM KCl, 2 mM CaCl2), 1 mM MgCl2, 5 mM glucose, 10 mM HEPES; pH adjusted to 7.4 with NaOH; 295-305 mOsm. The internal solution contained 50 mM KCl, 10 mM NaCl, 60 mM KF, 20 mM EGTA, 10 mM HEPES; pH adjusted to 7.2 with KOH; 285 mOsm. All compounds were dissolved in DMSO at 30 mM. Compound stock solutions were freshly diluted with external solution to concentrations of 30 nM, 100 nM, 300 nM, 1 μM, 3 μM, 10 μM, 30 μM and 100 μM. The highest content of DMSO (0.3%) was present in 100 μM.
The currents were evoked by applying 100 ms depolarizing pulses from −90 mV (holding potential) to +40 mV were applied with 0.1 Hz frequency. Control (compound-free) and compound pulse trains for each compound concentration applied contained 20 pulses. 10-second breaks were used between pulse trains (see Table A below).
Whole-cell current recordings and compound application were enabled by means of an automated patch clamp platform Patchliner (Nanion Technologies GmbH). EPC 10 patch clamp amplifier (HEKA Elektronik Dr. Schulze GmbH) along with Patchmaster software (HEKA Elektronik Dr. Schulze GmbH) was used for data acquisition. Data were sampled at 10 kHz without filtering. Passive leak currents were subtracted online using a P/4 procedure (HEKA Elektronik Dr. Schulze GmbH). Increasing compound concentrations were applied consecutively to the same cell without washouts in between. Total compound incubation time before the next pulse train was not longer than 10 seconds. Peak current inhibition was observed during compound equilibration.
AUC and peak values were obtained with Patchmaster (HEKA Elektronik Dr. Schulze GmbH). To determine IC50, the last single pulse in the pulse train corresponding to a given compound concentration was used. Obtained AUC and peak values in the presence of compound were normalized to control values in the absence of compound. Using Origin (OridinLab), IC50 was derived from data fit to Hill equation: Icompound/Icontrol=(100-A)/(1+([compound]/IC50)nH)+A, where IC50 value is the concentration at which current inhibition is half-maximal, [compound] is the applied compound concentration, A is the fraction of current that is not blocked and nH is the Hill coefficient.
(In general: The patch-clamp technique gives a direct electrical read-out from membranes.)
The IC50 is the point on the concentration scale where inhibition reaches its midpoint. A higher IC50 goes with weaker potency. Take `CC[C@H](C(N)=O)[C@@H]1CN[C@@H](c2c(O)ccc(Cl)c2Cl)C1` (single isomer, unassigned) [Compound 72]: the IC50 was less than 1 µM. In turn, `CC[C@@H](C(N)=O)[C@@H]1CN[C@@H](c2c(O)ccc(Cl)c2Cl)C1` (single isomer, unassigned) [Compound 73] gave an IC50 of less than 1 µM.

For `NC(=O)[C@H](C1CC1)[C@H]1CN[C@@H](c2c(O)ccc(Cl)c2Cl)C1` (single isomer, unassigned) [Compound 78], the IC50 was less than 0.1 µM. The same measure for `NC(=O)[C@@H](C1CC1)[C@H]1CN[C@@H](c2c(O)ccc(Cl)c2Cl)C1` (single isomer, unassigned) [Compound 79]: less than 1 µM.

The molecule `NC(=O)C[C@@H]1CN[C@@H](c2c(O)ccc(Cl)c2Cl)C1` [Compound 32, 2-[(3R,5R)-5-(2,3-dichloro-6-hydroxyphenyl)pyrrolidin-3-yl]acetamide] showed a half-inhibitory concentration (IC50) of less than 1 µM. For `C[C@@]1(CC(N)=O)CN[C@@H](c2c(O)ccc(Cl)c2Cl)C1` [Compound 50, 2-[5R-(2,3-dichloro-6-hydroxyphenyl)-3-methylpyrrolidin-3-yl]acetamide], the IC50 was less than 1 µM. Regarding `CC(C)(C(N)=O)[C@@H]1CN[C@@H](c2c(O)ccc(Cl)c2Cl)C1` [Compound 51, 2-[(3R,5R)-5-(2,3-dichloro-6-hydroxyphenyl)pyrrolidin-3-yl]-2-methylpropanamide], the IC50 is less than 1 µM. `O=C(C[C@H]1CN[C@@H](c2c(O)ccc(Cl)c2Cl)C1)N1CCC(O)CC1` [Compound 57, 2-((3S,5R)-5-(2,3-dichloro-6-hydroxyphenyl)pyrrolidin-3-yl)-1-(4-hydroxypiperidin-1-yl)ethan-1-one] showed an IC50 of less than 1 µM. For `O=C(C[C@H]1CN[C@@H](c2c(O)ccc(Cl)c2Cl)C1)N1CCC[C@H](O)C1` [Compound 59, 2-((3S,5R)-5-(2,3-dichloro-6-hydroxyphenyl)pyrrolidin-3-yl)-1-((S)-3-hydroxypiperidin-1-yl)ethan-1-one], the IC50 was less than 1 µM. `O=C(C[C@H]1CN[C@@H](c2c(O)ccc(Cl)c2Cl)C1)N1CC(CO)C1` [Compound 60, 2-((3S,5R)-5-(2,3-dichloro-6-hydroxyphenyl)pyrrolidin-3-yl)-1-(3-(hydroxymethyl)azetidin-1-yl)ethan-1-one] came in with an IC50 of less than 1 µM. Turning to `C[C@@H](CO)NC(=O)C[C@H]1CN[C@@H](c2c(O)ccc(Cl)c2Cl)C1` [Compound 62, 2-((3S,5R)-5-(2,3-dichloro-6-hydroxyphenyl)pyrrolidin-3-yl)-N-((S)-1-hydroxypropan-2-yl)acetamide], the IC50 is less than 1 µM. For the molecule `CC1(CO)CN(C(=O)C[C@H]2CN[C@@H](c3c(O)ccc(Cl)c3Cl)C2)C1` [Compound 69, 2-((3S,5R)-5-(2,3-dichloro-6-hydroxyphenyl)pyrrolidin-3-yl)-1-(3-(hydroxymethyl)-3-methylazetidin-1-yl)ethan-1-one], the IC50 was less than 1 µM.

For the molecule `O=C(C[C@H]1CN[C@@H](c2c(O)ccc(Cl)c2Cl)C1)N1CC(CO)(CO)C1` [Compound 70, 1-(3,3-bis(hydroxymethyl)azetidin-1-yl)-2-((3S,5R)-5-(2,3-dichloro-6-hydroxyphenyl)pyrrolidin-3-yl)ethan-1-one], the IC50 is less than 1 µM.
